Results published in PubChem BioAssay AID1963858 (Molecular Pharmacology Branch, DTP, NCI, 2024).
pIC50: −log10 of the molar value.

System: HOP-62 multicell spheroids with HUVEC/MSC, viability
Assay: Anticancer human tumor HOP-62 cell line growth inhibition [KRAS2];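 note: viability read after a week of compound exposure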;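 for viability, T/C: 100% = DMSO vehicle-treated spheroids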
Conditions: for pIC50: curve of first compound; for viability, T/C: stronger effect = lower value
Summary of the method: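 Combination screen of spheroid viability in tumor-cell co-cultures with endothelial (HUVEC) and mesenchymal stem cell stroma. Each agent was tested in half-log dilutions, topping at clinical Cmax or at 10 microM without a known Cmax.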

[1] = second compound 0.1 µM, first compound 0.01 µM
[2] = second compound 0.1 µM, first compound 0.0316 µM
[3] = second compound 0.1 µM, first compound 0.1 µM
[4] = second compound 0.1 µM, first compound 0.316 µM
[5] = second compound 0.1 µM, first compound 1 µM
[6] = second compound 0.1 µM, first compound 3.16 µM
[7] = second compound 0.316 µM, first compound 0.01 µM
[8] = second compound 0.316 µM, first compound 0.0316 µM
[9] = second compound 0.316 µM, first compound 0.1 µM
[10] = second compound 0.316 µM, first compound 0.316 µM
[11] = second compound 0.316 µM, first compound 1 µM
[12] = second compound 0.316 µM, first compound 3.16 µM
[13] = second compound 1 µM, first compound 0.01 µM
[14] = second compound 1 µM, first compound 0.0316 µM
[15] = second compound 1 µM, first compound 0.1 µM
[16] = second compound 1 µM, first compound 0.316 µM
[17] = second compound 1 µM, first compound 1 µM
[18] = second compound 1 µM, first compound 3.16 µM
[19] = second compound 3.16 µM, first compound 0.01 µM
[20] = second compound 3.16 µM, first compound 0.0316 µM
[21] = second compound 3.16 µM, first compound 0.1 µM
[22] = second compound 3.16 µM, first compound 0.316 µM
[23] = second compound 3.16 µM, first compound 1 µM
[24] = second compound 3.16 µM, first compound 3.16 µM
[25] = second compound 10 µM, first compound 0.01 µM
[26] = second compound 10 µM, first compound 0.0316 µM
[27] = second compound 10 µM, first compound 0.1 µM
[28] = second compound 10 µM, first compound 0.316 µM
[29] = second compound 10 µM, first compound 1 µM
[30] = second compound 10 µM, first compound 3.16 µM

SMILES: CC(=O)OC12COC1CC(O)C1(C)C(=O)C(O)C3=C(C)C(OC(=O)C(O)C(NC(=O)OC(C)(C)C)c4ccccc4)CC(O)(C(OC(=O)c4ccccc4)C21)C3(C)C (stereo not given) + COc1cc2nc(C)nc(NC(C)c3cc(N)cc(C(F)(F)F)c3)c2cc1OC1CCOC1
- pIC50 (second compound 0.1 µM): > 8.00
- pIC50 (second compound 0.316 µM): > 8.00
- pIC50 (second compound 1 µM): > 8.00
- pIC50 (second compound 3.16 µM): > 8.00
- pIC50 (second compound 10 µM): > 8.00
- viability, T/C [1]: 40%
- viability, T/C [2]: 32.3%
- viability, T/C [3]: 36.2%
- viability, T/C [4]: 32.7%
- viability, T/C [5]: 37.5%
- viability, T/C [6]: 53.4%
- viability, T/C [7]: 38.5%
- viability, T/C [8]: 35.6%
- viability, T/C [9]: 34.4%
- viability, T/C [10]: 27.5%
- viability, T/C [11]: 40.9%
- viability, T/C [12]: 41%
- viability, T/C [13]: 29.7%
- viability, T/C [14]: 35.1%
- viability, T/C [15]: 34.2%
- viability, T/C [16]: 39.5%
- viability, T/C [17]: 39.6%
- viability, T/C [18]: 38.7%
- viability, T/C [19]: 29.7%
- viability, T/C [20]: 27.3%
- viability, T/C [21]: 27.2%
- viability, T/C [22]: 37%
- viability, T/C [23]: 35.9%
- viability, T/C [24]: 39.5%
- viability, T/C [25]: 34.2%
- viability, T/C [26]: 31.1%
- viability, T/C [27]: 51.7%
- viability, T/C [28]: 30.7%
- viability, T/C [29]: 33.7%
- viability, T/C [30]: 40.6%

SMILES: CN(C)C/C=C/C(=O)Nc1cc2c(Nc3ccc(F)c(Cl)c3)ncnc2cc1O[C@H]1CCOC1 + COc1cc2nc(C)nc(NC(C)c3cc(N)cc(C(F)(F)F)c3)c2cc1OC1CCOC1
- pIC50 (second compound 0.1 µM): < 7.00
- pIC50 (second compound 0.316 µM): < 7.00
- pIC50 (second compound 1 µM): < 7.00
- pIC50 (second compound 3.16 µM): < 7.00
- pIC50 (second compound 10 µM): < 7.00
- viability, T/C (second compound 0.1 µM, first compound 0.000316 µM): 105%
- viability, T/C (second compound 0.1 µM, first compound 0.001 µM): 109%
- viability, T/C (second compound 0.1 µM, first compound 0.00316 µM): 105%
- viability, T/C [1]: 107%
- viability, T/C [2]: 105%
- viability, T/C [3]: 97%
- viability, T/C (second compound 0.316 µM, first compound 0.000316 µM): 115%
- viability, T/C (second compound 0.316 µM, first compound 0.001 µM): 107%
- viability, T/C (second compound 0.316 µM, first compound 0.00316 µM): 112%
- viability, T/C [7]: 96.7%
- viability, T/C [8]: 100%
- viability, T/C [9]: 97.7%
- viability, T/C (second compound 1 µM, first compound 0.000316 µM): 107%
- viability, T/C (second compound 1 µM, first compound 0.001 µM): 102%
- viability, T/C (second compound 1 µM, first compound 0.00316 µM): 114%
- viability, T/C [13]: 106%
- viability, T/C [14]: 101%
- viability, T/C [15]: 111%
- viability, T/C (second compound 3.16 µM, first compound 0.000316 µM): 72.3%
- viability, T/C (second compound 3.16 µM, first compound 0.001 µM): 64.1%
- viability, T/C (second compound 3.16 µM, first compound 0.00316 µM): 70%
- viability, T/C [19]: 64.2%
- viability, T/C [20]: 59.8%
- viability, T/C [21]: 64.3%
- viability, T/C (second compound 10 µM, first compound 0.000316 µM): 73.7%
- viability, T/C (second compound 10 µM, first compound 0.001 µM): 51.6%
- viability, T/C (second compound 10 µM, first compound 0.00316 µM): 49.6%
- viability, T/C [25]: 62.7%
- viability, T/C [26]: 59.9%
- viability, T/C [27]: 70.8%

SMILES: O=C(c1cc(Cc2n[nH]c(=O)c3ccccc23)ccc1F)N1CCN(C(=O)C2CC2)CC1 + COc1cc2nc(C)nc(NC(C)c3cc(N)cc(C(F)(F)F)c3)c2cc1OC1CCOC1
- pIC50 (second compound 0.1 µM): < 5.00
- pIC50 (second compound 0.316 µM): 5.15
- pIC50 (second compound 1 µM): < 5.00
- pIC50 (second compound 3.16 µM): 5.33
- pIC50 (second compound 10 µM): 7.01
- viability, T/C [2]: 99.5%
- viability, T/C [3]: 102%
- viability, T/C [4]: 106%
- viability, T/C [5]: 102%
- viability, T/C [6]: 85.1%
- viability, T/C (second compound 0.1 µM, first compound 10 µM): 52.7%
- viability, T/C [8]: 90.8%
- viability, T/C [9]: 85.6%
- viability, T/C [10]: 83.3%
- viability, T/C [11]: 92.3%
- viability, T/C [12]: 67.9%
- viability, T/C (second compound 0.316 µM, first compound 10 µM): 42%
- viability, T/C [14]: 102%
- viability, T/C [15]: 98.2%
- viability, T/C [16]: 93.4%
- viability, T/C [17]: 94.6%
- viability, T/C [18]: 85.4%
- viability, T/C (second compound 1 µM, first compound 10 µM): 50.5%
- viability, T/C [20]: 77%
- viability, T/C [21]: 61.9%
- viability, T/C [22]: 64%
- viability, T/C [23]: 69.3%
- viability, T/C [24]: 56.3%
- viability, T/C (second compound 3.16 µM, first compound 10 µM): 36.1%
- viability, T/C [26]: 97.5%
- viability, T/C [27]: 45.3%
- viability, T/C [28]: 55.5%
- viability, T/C [29]: 60.9%
- viability, T/C [30]: 47%
- viability, T/C (second compound 10 µM, first compound 10 µM): 35.1%
